In PubChem BioAssay (NCI):
“And” between values parts separate entries of the source, which are not always exact repeats. Equal entries are not always repeated.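 Cultured in 96-well plates, cells were exposed to test compound for 48 hours across five concentrations. GI50: concentration for 50% inhibition of growth. TGI denotes the concentration required for complete inhibition of growth.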

Key:
Assay in all cases: NCI tumour cell line growth inhibition, 48 h
[1] = system: HL-60(TB) leukemia
[2] = system: HCT-15 colon
[3] = system: SNB-75 CNS
[4] = system: OVCAR-4 ovarian
[5] = system: COLO 205 colon
[6] = system: OVCAR-8 ovarian
[7] = system: HCT-116 colon
[8] = system: LOX IMVI melanoma
[9] = system: MCF7 breast
[10] = system: UO-31 renal

Structure (SMILES)	TGI [1]	TGI [2]	TGI [3]	TGI [4]	TGI [5]	TGI [6]	TGI [7]	TGI [8]	TGI [9]	TGI [10]	GI50 [1]	GI50 [2]	GI50 [3]	GI50 [4]	GI50 [5]	GI50 [6]	GI50 [7]	GI50 [8]	GI50 [9]	GI50 [10]
CN(C)CC1CCCCCC(Br)C1=O (stereo unspecified)	30.1 µM	25.4 µM	> 100 µM	33.6 µM	31.6 µM	32.8 µM	5.1 µM	29.8 µM	12.7 µM	26.6 µM	–	–	–	–	–	–	–	–	–	–
COc1ccc(-c2nc(-c3ccccn3)c(-c3ccccn3)n2CC(C)C)cc1OC1CCCC1	58.8 µM	> 165 µM	123 µM	126 µM	> 165 µM	158 µM	> 165 µM	110 µM	115 µM	142 µM	21.2 µM	6.72 µM	24 µM	32.3 µM	52.2 µM	17.3 µM	7.35 µM	26.1 µM	6.58 µM	7.43 µM
CCSc1ccc([C@@H]2[C@@H](N)C(=O)N2c2cc(OC)c(OC)c(OC)c2)cc1	0.067 µM	> 100 µM	> 100 µM	> 100 µM	11.7 µM	> 100 µM	> 100 µM	> 100 µM	> 100 µM	> 100 µM	0.0257 µM	0.0654 µM	0.0375 µM	9.31 µM	0.0513 µM	0.176 µM	0.0448 µM	0.0754 µM	0.0392 µM	0.59 µM
Nc1nc(-c2ccc(Cl)cc2)cc(-c2ccc(Cl)cc2)c1-c1nc2ccccc2o1	37.2 µM	34.8 µM	30 µM	35.5 µM	39.5 µM	36.3 µM	30.5 µM	36.5 µM	35.7 µM	29.9 µM	17.9 µM	17.2 µM	15 µM	18.5 µM	21 µM	18.4 µM	14.8 µM	18.7 µM	10.6 µM	14.8 µM
COc1ccc(C2=N[C@@H](c3ccc(Cl)cc3)[C@@H](c3ccc(Cl)cc3)N2C(=O)N2CCNC(=O)C2)c(OC(C)C)c1	35.8 µM and 42.3 µM and 51 µM	32.3 µM and 28.7 µM and 30.2 µM	26.5 µM and 25.1 µM and 26.2 µM	24.9 µM and 26 µM and 31.5 µM	29.4 µM and 34.6 µM and 32.2 µM	31.1 µM and 30.9 µM and 30.1 µM	25.4 µM and 18.4 µM and 18.7 µM	27.4 µM and 19.3 µM and 18.3 µM	28.2 µM and 12.9 µM and 13 µM	20.7 µM and 17.5 µM and 15.9 µM	15.1 µM and 18.1 µM and 18.5 µM	14.3 µM and 14.5 µM and 14.9 µM	13.4 µM and 11.8 µM and 11.9 µM	12.1 µM and 12.5 µM and 13.7 µM	15 µM and 16.6 µM and 15.8 µM	15.2 µM and 15.1 µM and 14.8 µM	12.4 µM and 3.82 µM and 3.53 µM	13.8 µM and 4.07 µM and 2.81 µM	13 µM and 2.43 µM and 2.27 µM	5.92 µM and 3.77 µM and 2.63 µM
CN1CCN(c2ccc3nc(-c4[nH]ncc4Nc4ncnc5c4OCCCN5)[nH]c3c2)CC1	0.0298 µM	0.63 µM	0.0177 µM	0.104 µM	0.0157 µM	0.593 µM	1.09 µM	0.0202 µM	0.145 µM	0.0578 µM	< 0.01 µM	0.0259 µM	< 0.01 µM	0.0162 µM	< 0.01 µM	0.0176 µM	< 0.01 µM	< 0.01 µM	< 0.01 µM	0.0179 µM
O=C(c1ccco1)c1nc2cc(C(F)(F)F)ccc2[n+]([O-])c1C(F)(F)F	> 100 µM	> 100 µM	90.9 µM	55.2 µM	> 100 µM	> 100 µM	> 100 µM	> 100 µM	> 100 µM	> 100 µM	78.1 µM	56.5 µM	23 µM	17.9 µM	43.8 µM	> 100 µM	38.5 µM	40.1 µM	6.57 µM	58.8 µM
COc1ccc(-c2nnc(SCC(=O)Nc3ccc(C(=O)/C=C/c4cc(OC)c(OC)c(OC)c4)cc3)n2-c2ccccc2)cc1OC	> 10 µM	> 10 µM	> 10 µM	> 10 µM	> 10 µM	> 10 µM	> 10 µM	4.87 µM	> 10 µM	> 10 µM	6.44 µM	2.01 µM	> 10 µM	> 10 µM	> 10 µM	5.29 µM	0.433 µM	1.74 µM	0.382 µM	> 10 µM
Cc1ccc2nc3c(n2c1)C(=O)C(=O)c1ccccc1-3	0.602 µM	0.416 µM	0.618 µM	0.537 µM	3.76 µM	0.655 µM	1.09 µM	0.276 µM	0.308 µM	1 µM	0.17 µM	0.17 µM	0.266 µM	0.21 µM	1.91 µM	0.238 µM	0.188 µM	0.132 µM	0.14 µM	0.194 µM
CCOc1cc2c(=O)oc3c(OC)ccc4ccc(c1OC)c2c43	> 100 µM	> 100 µM	> 100 µM	> 100 µM	> 100 µM	79.3 µM	20.4 µM	> 100 µM	> 100 µM	> 100 µM	–	–	–	–	–	–	–	–	–	–
CCCCCCCCNC(C)C(O)c1ccc(SC(C)C)cc1 (stereo unspecified)	4.07 µM	3.29 µM	3.26 µM	3.25 µM	3 µM	–	3.11 µM	2.92 µM	3.32 µM	3.32 µM	2.2 µM	1.7 µM	1.72 µM	1.79 µM	1.62 µM	–	1.59 µM	1.54 µM	1.8 µM	1.77 µM
CC#CC#C/C=C1\C=CC2(OC=CC2OC(C)=O)O1 (stereo unspecified)	36.5 µM and > 86.7 µM	30 µM and 27.8 µM	> 100 µM and 95.9 µM	> 100 µM	28.2 µM and 33.3 µM	> 100 µM and 51.7 µM	> 100 µM and 33.1 µM	> 100 µM and 31.7 µM	30.8 µM	30.8 µM and 36.2 µM	–	16.4 µM and 4.78 µM	–	29.1 µM	–	–	39.8 µM and 17.3 µM	–	–	–
O=C(Cc1ccc(Nc2ccnc(C(F)(F)F)c2)cc1)Nc1cc(Cl)ccc1O	5.35 µM	61 µM	37.5 µM	84.2 µM	55.4 µM	> 100 µM	26.5 µM	28.5 µM	42.8 µM	18.2 µM	1.7 µM	5.66 µM	11.9 µM	9.48 µM	21.7 µM	20.5 µM	5.12 µM	6.46 µM	4.99 µM	2.84 µM
